Measurements published in patent US20110237538A1, “TREATMENT OF LYSOSOMAL STORAGE DISORDERS AND OTHER PROTEOSTATIC DISEASES” (SUMMIT CORPORATION PLC, priority 2008, published 2011).

How the values were obtained:
Assay type in all cases: biochemical
[1] = molecular target: T1, α-D-mannosidase (Jack bean) (Canavalia ensiformis, UniProt C0HJB3); assay: glycosidase assay with p-nitrophenyl substrates (Example 2); details: 10 μl of 5 mM iminosugar solution in 70 μl incubation mixture; 20° C.
T1 construct: purchased Sigma Aldrich Chemicals Limited
T1 sequence (C0HJB3 1-981): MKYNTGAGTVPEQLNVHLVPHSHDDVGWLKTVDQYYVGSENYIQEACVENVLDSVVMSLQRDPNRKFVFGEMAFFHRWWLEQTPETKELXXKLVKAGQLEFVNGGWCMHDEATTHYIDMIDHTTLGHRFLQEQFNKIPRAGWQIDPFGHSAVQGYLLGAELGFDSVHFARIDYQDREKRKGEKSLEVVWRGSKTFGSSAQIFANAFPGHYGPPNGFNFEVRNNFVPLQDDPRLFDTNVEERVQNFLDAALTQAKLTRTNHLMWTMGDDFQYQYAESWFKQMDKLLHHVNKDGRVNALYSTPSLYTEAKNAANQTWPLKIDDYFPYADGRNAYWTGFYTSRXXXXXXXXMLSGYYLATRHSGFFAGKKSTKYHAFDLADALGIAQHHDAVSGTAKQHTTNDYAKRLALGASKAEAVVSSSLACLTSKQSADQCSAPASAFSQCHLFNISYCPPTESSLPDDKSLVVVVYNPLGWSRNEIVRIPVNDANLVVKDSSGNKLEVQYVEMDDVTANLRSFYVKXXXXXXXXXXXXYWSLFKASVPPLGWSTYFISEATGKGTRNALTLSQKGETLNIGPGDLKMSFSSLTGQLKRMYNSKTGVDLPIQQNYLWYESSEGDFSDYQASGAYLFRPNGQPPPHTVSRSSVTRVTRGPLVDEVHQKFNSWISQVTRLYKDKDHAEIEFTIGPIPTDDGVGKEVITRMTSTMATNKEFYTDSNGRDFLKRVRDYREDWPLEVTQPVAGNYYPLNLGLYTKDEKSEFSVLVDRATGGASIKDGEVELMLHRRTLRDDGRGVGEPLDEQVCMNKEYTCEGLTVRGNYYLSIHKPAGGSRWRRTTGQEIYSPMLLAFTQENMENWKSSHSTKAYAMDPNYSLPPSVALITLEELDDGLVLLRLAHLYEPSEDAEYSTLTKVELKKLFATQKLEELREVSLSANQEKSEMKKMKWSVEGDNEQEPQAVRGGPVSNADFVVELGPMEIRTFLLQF
Description: (§1) The assays were conducted as described by Watson et al. 1997, Phytochemistry 46: 255-259 using p-nitrophenyl-substrates. Assays were carried out in microtitre plates. Enzymes were assayed in 0.1M citric acid/0.2M di-sodium hydrogen phosphate (Mcllvaine) buffers at the optimum pH for the enzyme. All assays were carried out at 20° C. All enzymes and substrates were purchased from Sigma Aldrich Chemicals Limited. The incubation mixture consisted of 10 μl of enzyme solution, 10 μl of the iminosugars solution (made up in deionised water at 5 mM) and 50 μl of the appropriate 5 mM p-nitrophenyl substrate made up in McIlvaine buffer at the optimum pH for the enzyme. The reactions were stopped with 0.4M glycine (pH 10.4) during the exponential phase of the reaction, which was determined at the beginning of the assay using blanks with water, which were incubated for a range of time periods to measure the reaction rate using 5 mM substrate solution. Absorbances were read at 405 nm. Water was substituted for the inhibitors in the blanks.
(§2) The glycosidases used were α-D-glucosidase (yeast), α-D-glucosidase (Bacillus sterothermophilus), α-D-glucosidase (rice), amyloglucosidase (Aspergillus niger), β-D-glucosidase (almond), α-D-galactosidase (green coffee beans), β-D-galactosidase (bovine liver), α-L-fucosidase (bovine kidney), α-D-mannosidase (Jack bean), β-D-mannosidase (Cellullomonas fimi), Naringinase (Penicillium decumbens), N-acetyl-β-D-glucosaminidase (Bovine kidney), N-acetyl-β-D-glucosaminidase (Aspergillus oryzae) and N-acetyl-β-D-glucosaminidase (Jack bean)

[2] = molecular target: T2, Jack bean α-D-mannosidase (Canavalia ensiformis, UniProt C0HJB3); assay: α-mannosidase activity assay with p-nitrophenyl-α-D-mannopyranoside (Example 1)
T2 construct: purchased Sigma M7257
T2 sequence (C0HJB3 1-981): T1 sequence (C0HJB3 1-981)
Description: Solutions of 0.2M Mcllvane buffer at pH 4.5 and 5 mM p-nitrophenyl-α-D-mannopyranoside (Sigma, N2127), dissolved in the buffer, were prepared. A solution of Jack bean α-D-mannosidase enzyme (Sigma, M7257, 22 Units/mg, 6.2 mg/ml.) was also prepared at 0.6 Units/ml in the buffer.
The incubation mixture consisted of 10 μl enzyme solution, 10 μl of 1 mg/ml aqueous iminosugar solution and 50 μl of 5 mM substrate made up in buffer at the optimum pH for the enzyme. The reactions were stopped by addition of 70 μl 0.4M glycine (pH 10.4) during the exponential phase of the reaction, which had been determined at the beginning using uninhibited assays in which water replaced inhibitor. Final absorbances were read at 405 nm using a Versamax microplate reader (Molecular Devices). Assays were carried out in triplicate, and the values given are means of the three replicates. Results were expressed as a percentage of uninhibited assays in which water replaced inhibitor.

[3] = test system: α-D-glucosidase (Bacillus sterothermophilus); assay: glycosidase assay with p-nitrophenyl substrates (Example 2); details: 10 μl of 5 mM iminosugar solution in 70 μl incubation mixture; 20° C.
Description: as §1, §2

[4] = molecular target: T3, α-D-galactosidase (green coffee beans) (Coffea arabica, UniProt Q42656); assay: as above; details: 10 μl of 5 mM iminosugar solution in 70 μl incubation mixture; 20° C.; read-out: Promotion of glycosidase activity: α-D-galactosidase (Green coffee bean)
T3 construct: purchased Sigma Aldrich Chemicals Limited
T3 sequence (Q42656 16-378): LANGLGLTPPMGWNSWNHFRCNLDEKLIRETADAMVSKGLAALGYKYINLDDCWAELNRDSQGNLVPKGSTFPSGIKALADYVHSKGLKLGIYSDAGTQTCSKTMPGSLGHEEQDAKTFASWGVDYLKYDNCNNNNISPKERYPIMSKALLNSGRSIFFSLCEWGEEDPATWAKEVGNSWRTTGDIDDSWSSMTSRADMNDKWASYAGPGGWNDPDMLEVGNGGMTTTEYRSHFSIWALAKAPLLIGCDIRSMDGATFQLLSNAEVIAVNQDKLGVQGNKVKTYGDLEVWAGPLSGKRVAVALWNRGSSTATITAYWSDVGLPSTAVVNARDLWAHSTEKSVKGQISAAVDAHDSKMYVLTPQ
Description: as §1, §2

[5] = test system: N-acetyl-β-D-glucosaminidase (Bovine kidney); assay: as above; details: 10 μl of 5 mM iminosugar solution in 70 μl incubation mixture; 20° C.
Description: as §1, §2

[6] = Jack Bean α-mannosidase, p-nitrophenyl-α-D-mannopyranoside as the substrate

SMILES	Promotion of glycosidase activity: α-D-mannosidase (Jack bean) [1]	promotion of the mannosidase activity (in words) [2, 6]	Promotion of glycosidase activity: α-D-glucosidase (Bacillus sterothermophilus) [3]	Promotion of glycosidase activity: N-acetyl-β-D-gluc (Bovine kidney) [5]	other results
CN1C[C@H](O)C(O)[C@@H](O)C1 [Compound 299, (3S,5S)-1-methylpiperidine-3,4,5-triol]	35 % increase in absorbance compared to the water controls	–	–	–	–
O[C@H]1[C@H]2[C@H](O)CCCN2C[C@H]1O [swainsonine, reference compound]	–	does not cause promotion	–	–	inhibition of the mannosidase (in words) [2, 6]: total inhibition of the promoted activity
OC[C@H](O)[C@@H]1NC[C@@](O)(CO)[C@H]1O [Compound 200, (2S,3S,4R)-2-((R)-1,2-dihydroxyethyl)-4-(hydroxymethyl)pyrrolidine-3,4-diol]	–	promotion of the mannosidase activity	–	–	–
CCOP(=O)(CCCN1C[C@@H](N=[N+]=[N-])C[C@H]1CO)OCC [Compound 291, diethyl 3-((2S,4S)-4-azido-2-(hydroxymethyl)pyrrolidin-1-yl)propylphosphonate]	43 % increase in absorbance compared to the water controls	–	49 % increase in absorbance compared to the water controls	–	–
CCCCCCCCCN1C[C@@H](O)[C@@H](O)[C@@H]1[C@@H](O)CO [Compound 316, (2S,3S,4R)-2-((R)-1,2-dihydroxyethyl)-1-nonylpyrrolidine-3,4-diol]	–	–	167 % increase in absorbance compared to the water controls	94 % increase in absorbance compared to the water controls	activation at 714 µM [4]: 42%
CCCC[N@@+]1([O-])C[C@@H](O)[C@H](O)[C@@H]1CO [Compound 178, (1R,2S,3R,4R)-1-butyl-3,4-dihydroxy-2-(hydroxymethyl)pyrrolidine 1-oxide]	35 % increase in absorbance compared to the water controls	–	161 % increase in absorbance compared to the water controls	85 % increase in absorbance compared to the water controls	–
N[C@H]1[C@H](O)[C@H](O)[C@@H](O)[C@H](O)[C@@H]1CO [Compound A]	–	strong stimulation	–	–	stimulation ([2]; Compound A alone): 90%
O=C1N[C@H]([C@H](O)CO)[C@H](OCc2ccccc2)[C@@H]1OCc1ccccc1 [Compound 242, (3S,4S,5R)-3,4-bis(benzyloxy)-5-((S)-1,2-dihydroxyethyl)pyrrolidin-2-one]	–	–	65 % increase in absorbance compared to the water controls	59 % increase in absorbance compared to the water controls	activation at 714 µM [4]: 38%
CC1(C)O[C@H]2[C@H](O)[C@@H](CO[Si](C)(C)C(C)(C)C)NC(=O)[C@H]2O1 [Compound 238, (3aS,6R,7R,7aS)-6-((tert-butyldimethylsilyloxy)methyl)-7-hydroxy-2,2-dimethyltetrahydro-[1,3]dioxolo[4,5-c]pyridin-4(3aH)-one]	–	–	127 % increase in absorbance compared to the water controls	31 % increase in absorbance compared to the water controls	activation at 714 µM [4]: 30%
O=C1NC[C@@H](O)[C@@H](O)[C@]1(O)CO [Compound 170, (3R,4R,5R)-3,4,5-trihydroxy-3-(hydroxymethyl)piperidin-2-one]	–	promotion of the mannosidase activity	–	–	–
O=C(O)[C@@]1(O)CNC[C@@H](O)[C@H]1O [Compound 87, (3R,4R,5R)-3,4,5-trihydroxypiperidine-3-carboxylic acid]	–	promotion of the mannosidase activity	–	–	–
CCCCN1C[C@@H](N)C[C@H]1CO [Compound 292, ((2S,4S)-4-amino-1-butylpyrrolidin-2-yl)methanol]	34 % increase in absorbance compared to the water controls	–	–	–	–
